# Source: PMC12040169 (PLOS Biology, 2025)
# Test: in vitro
# Details: human, hela cells, % viability
row,SMILES,"viability at 28.5 h, 10 µM [%]"
1,COc1ccccc1OCC(=O)NCc1ccc(-c2csnn2)cc1 [CBK149303],99.5
2,O=C(NCc1ccc(-c2csnn2)cc1)c1cccnc1 [CBK149309],87
3,O=C(NCc1ccc(-c2csnn2)cc1)c1c(F)cccc1F [CBK149310],86
4,O=C(COc1ccc(F)cc1)NCc1ccc(-c2csnn2)cc1 [CBK149315],98.3
5,COc1cc(C(=O)N2CCC3(CC2)NC(=O)c2cc(Br)ccc2O3)ccc1C [CBK149464],92.3
6,COc1cc(C(=O)N2CCC3(CC2)CC(=O)c2cc(Br)ccc2O3)ccc1C [CBK149465],110
7,CS(=O)(=O)c1ccc(-n2cc(CN3CCC(Sc4ccccc4)CC3)nn2)cc1 [CBK149468],101
8,CC(C)(C)OC(=O)N1CCC(OCc2cn(-c3ccc(-n4cncn4)cc3)nn2)CC1 [CBK149477],87.1
9,CC(C)(C)OC(=O)N1CCC(OCc2cn(-c3ccc(S(C)(=O)=O)cc3)nn2)CC1 [CBK149478],98.1
10,CC(=O)Nc1ccc(-c2cccc(COC3CCN(C(=O)Cc4cc(F)cc(F)c4F)CC3)c2)cc1 [CBK149489],89.2
11,CC(=O)Nc1ccc(-c2cccc(COC3CCN(C(=O)Cc4ccc(C#N)cc4)CC3)c2)cc1 [CBK149495],101
12,CS(=O)(=O)c1ccc(-c2cccc(COC3CCN(C(=O)Cc4ccc(Cl)cc4)CC3)c2)cc1 [CBK149504],110
13,CS(=O)(=O)c1ccc(-c2cccc(COC3CCN(C(=O)Cc4c[nH]cn4)CC3)c2)cc1 [CBK149515],90.9
14,CN1CCN(CCCNC(=O)C2(c3ccccc3)CCCC2)CC1 [CBK149521],106
15,O=C(NCC1COc2ccccc2O1)C1(c2ccccc2)CCCC1 (centres unmarked) [CBK149524],93.8
16,CSCCCNC(=O)C1(c2ccccc2)CCCC1 [CBK149526],109
17,O=C(NCc1ccc(Cl)c(Cl)c1)C1(c2ccccc2)CCCC1 [CBK149528],92.8
18,O=C(NCc1ccc2c(c1)OCO2)C1(c2ccccc2)CCCC1 [CBK149530],89.8

row,SMILES,"viability at 28.5 h, 10 µM [%]"
1,Cc1cnc(CNC(=O)C2(c3ccccc3)CCCC2)cn1 [CBK149531],101
2,O=C(NCc1cccc2ccccc12)C1(c2ccccc2)CCCC1 [CBK149534],96.6
3,O=C(NCCc1ccc(O)cc1)C1(c2ccccc2)CCCC1 [CBK149535],84.9
4,O=C(NCCN1CCOCC1)C1(c2ccccc2)CCCC1 [CBK149538],95.2
5,O=C(NCc1ccccc1)C1(c2ccccc2)CCCC1 [CBK149540],111
6,CC(O)CNC(=O)C1(c2ccccc2)CCCC1 (centres unmarked) [CBK149542],96
7,CCOC(=O)CCNC(=O)C1(c2ccccc2)CCCC1 [CBK149543],88.2
8,Cc1cc(Cl)ccc1CNC(=O)c1ccccc1Nc1cccc(C(F)(F)F)c1 [CBK149544],97.3
9,CSCCCNC(=O)c1ccccc1Nc1cccc(C(F)(F)F)c1 [CBK149551],71.3
10,NS(=O)(=O)c1ccc(CNC(=O)c2ccccc2Nc2cccc(C(F)(F)F)c2)cc1 [CBK149579],94.4
11,O=C(Nc1ccc2[nH]ccc2c1)c1ccccc1Nc1cccc(C(F)(F)F)c1 [CBK149583],105
12,O=C(NCc1cccs1)c1ccccc1-n1cccc1 [CBK149584],92
13,O=C(NCc1cccc2ccccc12)c1ccccc1-n1cccc1 [CBK149585],99.8
14,O=C(NCc1cccc(C(F)(F)F)c1)c1ccccc1-n1cccc1 [CBK149598],100
15,CS(=O)(=O)c1ccc(CNC(=O)c2ccccc2-n2cccc2)cc1 [CBK149612],94.2
16,Cc1cc(Cl)ccc1CNC(=O)/C=C/c1ccc(C(C)C)cc1 [CBK149615],85.2
17,CC(C)c1ccc(/C=C/C(=O)NCC2COc3ccccc3O2)cc1 (centres unmarked) [CBK149619],120
